Assay results published in US9695155B2, “Herbicidal substituted pyrimidinyloxy benzene compounds” (E. I. DU PONT DE NEMOURS AND COMPANY, priority 2013, dated 2017).

Experiments:
yellow nutsedge = assay: Test C postemergence; format: in vivo, Cyperus esculentus; settings: for Plant response rating (0 to 100), Nutsedge, Yellow: 16 g ai/ha, 0 is no effect, 100 is complete control; for Nutsedge, Yellow plant response rating: 31 g ai/ha; for Nutsedge, Yellow plant response rating / Plant response rating, Nutsedge, Yellow: scale 0 to 100 (0 no effect, 100 complete control)
Summary of the method: (§1)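 Visual ratings on a 0–100 scale (100 = complete control) were made versus untreated controls after 13–15 greenhouse days. Chemicals in a surfactant-containing non-phytotoxic solvent were applied either preemergence to seeds in loam–sand soil or postemergence to 1- to 4-leaf plants 2–18 cm tall.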

sedge, umbrella = assay: Test B flooded paddy test; format: in vivo, Cyperus difformis; settings: Flood, 250 g ai/ha; 0 to 100 scale where 0 is no effect and 100 is complete control
Summary of the method: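 Compound added straight to paddy water, with pots kept flooded 3 cm above soil, on plants grown to the 2-leaf stage. Visual scoring 0-100 (100 = complete control) against untreated controls after 13 to 15 greenhouse days.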

oilseed rape = assay: Test C postemergence; format: in vivo, Brassica napus; settings: for Plant response rating (0 to 100), Oilseed Rape: 16 g ai/ha, 0 is no effect, 100 is complete control; for Oilseed Rape plant response rating: 31 g ai/ha; for Oilseed Rape plant response rating / Plant response rating, Oilseed Rape: scale 0 to 100 (0 no effect, 100 complete control)
Summary of the method: as §1

wheat [1] = assay: Test A postemergence; format: in vivo, Triticum aestivum; settings: 0 to 100 scale where 0 is no effect and 100 is complete control; for Wheat plant response rating: 125 g ai/ha; for Plant response rating, Wheat: 500 g ai/ha
Summary of the method: (§2)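 Visual 0–100 rating (100 = complete control) taken about 10 d post-treatment relative to untreated checks. Preemergence: directed soil spray on sown loam/sand pots. Postemergence: seedlings 2–10 cm, 1–2 leaf. Non-phytotoxic solvent formulation with surfactant.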

morningglory [2] = assay: Test A preemergence; format: in vivo, Ipomoea spp.; settings: for Morningglory plant response rating (0 to 100 scale): 125 g ai/ha; for Morningglory plant response rating: 500 g ai/ha, 0 to 100 scale where 0 is no effect and 100 is complete control
Summary of the method: as §2

morningglory [3] = assay: Test A postemergence; format: in vivo, Ipomoea spp.; settings: 0 to 100 scale where 0 is no effect and 100 is complete control; for Morningglory plant response rating: 125 g ai/ha; for Plant response rating, Morningglory: 500 g ai/ha
Summary of the method: as §2

kochia = assay: Test C postemergence; format: in vivo, Kochia scoparia; settings: for Plant response rating (0 to 100), Kochia: 16 g ai/ha, 0 is no effect, 100 is complete control; for Kochia plant response rating: 31 g ai/ha; for Kochia plant response rating / Plant response rating, Kochia: scale 0 to 100 (0 no effect, 100 complete control)
Summary of the method: as §1

barnyardgrass [4] = assay: Test C postemergence; format: in vivo, Echinochloa crus-galli; settings: for Plant response rating (0 to 100), Barnyardgrass: 16 g ai/ha, 0 is no effect, 100 is complete control; for Barnyardgrass plant response rating: 31 g ai/ha, 13 to 15 days; for Barnyardgrass plant response rating / Plant response rating, Barnyardgrass: scale 0 to 100 (0 no effect, 100 complete control)
Summary of the method: as §1

blackgrass = assay: Test C postemergence; format: in vivo, Alopecurus myosuroides; settings: for Plant response rating (0 to 100), Blackgrass: 16 g ai/ha, 0 is no effect, 100 is complete control; for Blackgrass plant response rating: 31 g ai/ha; for Blackgrass plant response rating / Plant response rating, Blackgrass: scale 0 to 100 (0 no effect, 100 complete control)
Summary of the method: as §1

morningglory [5] = assay: Test C postemergence; format: in vivo, Ipomoea coccinea; settings: for Plant response rating (0 to 100), Morningglory: 16 g ai/ha, 0 is no effect, 100 is complete control; for Morningglory plant response rating: 31 g ai/ha; for Morningglory plant response rating / Plant response rating, Morningglory: scale 0 to 100 (0 no effect, 100 complete control)
Summary of the method: as §1

wheat [6] = assay: Test A preemergence; format: in vivo, Triticum aestivum; settings: for Wheat plant response rating (0 to 100 scale): 125 g ai/ha
Summary of the method: as §2

barnyardgrass [7] = assay: Test A preemergence; format: in vivo, Echinochloa crus-galli; settings: for Barnyardgrass plant response rating (0 to 100 scale, 0 is no effect, 100 is complete control): 125 g ai/ha; for Barnyardgrass plant response rating: 500 g ai/ha, 0 to 100 scale where 0 is no effect and 100 is complete control
Summary of the method: as §2

large (Lg) crabgrass = assay: Test C postemergence; format: in vivo, Digitaria sanguinalis; settings: for Plant response rating (0 to 100), Crabgrass, Large: 16 g ai/ha, 0 is no effect, 100 is complete control; for Crabgrass, Large plant response rating: 31 g ai/ha; for Crabgrass, Large plant response rating / Plant response rating, Crabgrass, Large: scale 0 to 100 (0 no effect, 100 complete control)
Summary of the method: as §1

johnsongrass = assay: Test C postemergence; format: in vivo, Sorghum halepense; settings: for Plant response rating (0 to 100), Johnsongrass: 16 g ai/ha, 0 is no effect, 100 is complete control; for Johnsongrass plant response rating: 31 g ai/ha; for Johnsongrass plant response rating / Plant response rating, Johnsongrass: scale 0 to 100 (0 no effect, 100 complete control)
Summary of the method: as §1

corn = assay: Test A preemergence; format: in vivo, Zea mays; settings: for Corn plant response rating (0 to 100 scale): 125 g ai/ha; for Corn plant response rating: 500 g ai/ha, 0 to 100 scale where 0 is no effect and 100 is complete control
Summary of the method: as §2

[8] = postemergence, visual rating, 13 to 15 days
[9] = 125 g ai/ha, postemergence, visual rating
[10] = Postemergence, 62 g ai/ha, 13 to 15 days

Structure (SMILES): FC(F)(F)c1cnn(-c2c(Br)cccc2Oc2ncc(Cl)cn2)c1 [Compound 191]
- Plant response rating (0 to 100), Nutsedge, Yellow (yellow nutsedge; postemergence): 0
- Nutsedge, Yellow plant response rating (yellow nutsedge; [8]): 0
- Plant response rating, Nutsedge, Yellow (yellow nutsedge; [9]): 5
- Plant response rating, Nutsedge, Yellow (yellow nutsedge; Postemergence, 62 g ai/ha): 5
- Plant response rating, Sedge, Umbrella (sedge, umbrella): 95
- Plant response rating (0 to 100), Oilseed Rape (oilseed rape; postemergence): 10
- Oilseed Rape plant response rating (oilseed rape; [8]): 45
- Plant response rating, Oilseed Rape (oilseed rape; [9]): 50
- Plant response rating, Oilseed Rape (oilseed rape; Postemergence, 62 g ai/ha): 50
- Wheat plant response rating (wheat [1]): 20
- Plant response rating, Wheat (wheat [1]): 40
- Morningglory plant response rating (0 to 100 scale) (morningglory [2]): 50
- Morningglory plant response rating (morningglory [2]): 70
- Morningglory plant response rating (morningglory [3]): 80
- Plant response rating, Morningglory (morningglory [3]): 100
- Plant response rating (0 to 100), Kochia (kochia; postemergence): 85
- Kochia plant response rating (kochia; [8]): 95
- Plant response rating, Kochia (kochia; [9]): 100
- Plant response rating, Kochia (kochia; Postemergence, 62 g ai/ha): 98
- Plant response rating (0 to 100), Barnyardgrass (barnyardgrass [4]; postemergence): 10
- Barnyardgrass plant response rating (barnyardgrass [4]; postemergence, visual rating): 10
- Plant response rating, Barnyardgrass (barnyardgrass [4]; [9]): 15
- Plant response rating, Barnyardgrass (barnyardgrass [4]; Postemergence, 62 g ai/ha): 15
- Plant response rating (0 to 100), Blackgrass (blackgrass; postemergence): 0
- Blackgrass plant response rating (blackgrass; [8]): 0
- Plant response rating, Blackgrass (blackgrass; [9]): 10
- Plant response rating, Blackgrass (blackgrass; Postemergence, 62 g ai/ha): 5
- Plant response rating (0 to 100), Morningglory (morningglory [5]; postemergence): 40
- Morningglory plant response rating (morningglory [5]; [8]): 85
- Plant response rating, Morningglory (morningglory [5]; [9]): 50
- Plant response rating, Morningglory (morningglory [5]; Postemergence, 62 g ai/ha): 85
- Wheat plant response rating (0 to 100 scale) (wheat [6]): 20
- Wheat plant response rating (wheat [6]; 500 g ai/ha, 0 to 100 scale where 0 is no effect and 100 is complete control): 40
- Barnyardgrass plant response rating (0 to 100 scale, 0 is no effect, 100 is complete control) (barnyardgrass [7]): 70
- Barnyardgrass plant response rating (barnyardgrass [7]): 100
- Plant response rating (0 to 100), Crabgrass, Large (large (Lg) crabgrass; postemergence): 5
- Crabgrass, Large plant response rating (large (Lg) crabgrass; [8]): 5
- Plant response rating, Crabgrass, Large (large (Lg) crabgrass; [9]): 10
- Plant response rating, Crabgrass, Large (large (Lg) crabgrass; Postemergence, 62 g ai/ha): 5
- Plant response rating (0 to 100), Johnsongrass (johnsongrass; postemergence): 30
- Johnsongrass plant response rating (johnsongrass; [8]): 10
- Plant response rating, Johnsongrass (johnsongrass; [9]): 10
- Plant response rating, Johnsongrass (johnsongrass; Postemergence, 62 g ai/ha): 15
- Corn plant response rating (0 to 100 scale) (corn): 0
- Corn plant response rating (corn): 30

Structure (SMILES): FC(F)c1cnn(-c2c(Cl)cccc2Oc2ncc(Cl)cn2)c1 [Compound 192]
- Plant response rating (0 to 100), Nutsedge, Yellow (yellow nutsedge; postemergence): 5
- Nutsedge, Yellow plant response rating (yellow nutsedge; [8]): 5
- Plant response rating, Nutsedge, Yellow (yellow nutsedge; [9]): 40
- Plant response rating, Nutsedge, Yellow (yellow nutsedge; [10]): 0
- Plant response rating, Sedge, Umbrella (sedge, umbrella): 85
- Plant response rating (0 to 100), Oilseed Rape (oilseed rape; postemergence): 10
- Oilseed Rape plant response rating (oilseed rape; [8]): 5
- Plant response rating, Oilseed Rape (oilseed rape; [9]): 60
- Plant response rating, Oilseed Rape (oilseed rape; [10]): 60
- Wheat plant response rating (wheat [1]): 0
- Plant response rating, Wheat (wheat [1]): 50
- Morningglory plant response rating (0 to 100 scale) (morningglory [2]): 30
- Morningglory plant response rating (morningglory [2]): 100
- Morningglory plant response rating (morningglory [3]): 80
- Plant response rating, Morningglory (morningglory [3]): 100
- Plant response rating (0 to 100), Kochia (kochia; postemergence): 30
- Kochia plant response rating (kochia; [8]): 45
- Plant response rating, Kochia (kochia; [9]): 90
- Plant response rating, Kochia (kochia; [10]): 85
- Plant response rating (0 to 100), Barnyardgrass (barnyardgrass [4]; postemergence): 5
- Barnyardgrass plant response rating (barnyardgrass [4]; postemergence, visual rating): 10
- Plant response rating, Barnyardgrass (barnyardgrass [4]; [9]): 10
- Plant response rating, Barnyardgrass (barnyardgrass [4]; Postemergence, 62 g ai/ha): 10
- Plant response rating (0 to 100), Blackgrass (blackgrass; postemergence): 0
- Blackgrass plant response rating (blackgrass; [8]): 0
- Plant response rating, Blackgrass (blackgrass; [9]): 10
- Plant response rating, Blackgrass (blackgrass; [10]): 5
- Plant response rating (0 to 100), Morningglory (morningglory [5]; postemergence): 30
- Morningglory plant response rating (morningglory [5]; [8]): 50
- Plant response rating, Morningglory (morningglory [5]; [9]): 35
- Plant response rating, Morningglory (morningglory [5]; [10]): 35
- Wheat plant response rating (0 to 100 scale) (wheat [6]): 0
- Barnyardgrass plant response rating (0 to 100 scale, 0 is no effect, 100 is complete control) (barnyardgrass [7]): 60
- Barnyardgrass plant response rating (barnyardgrass [7]): 100
- Plant response rating (0 to 100), Crabgrass, Large (large (Lg) crabgrass; postemergence): 5
- Crabgrass, Large plant response rating (large (Lg) crabgrass; [8]): 10
- Plant response rating, Crabgrass, Large (large (Lg) crabgrass; [9]): 5
- Plant response rating, Crabgrass, Large (large (Lg) crabgrass; [10]): 5
- Plant response rating (0 to 100), Johnsongrass (johnsongrass; postemergence): 5
- Johnsongrass plant response rating (johnsongrass; [8]): 10
- Plant response rating, Johnsongrass (johnsongrass; [9]): 10
- Plant response rating, Johnsongrass (johnsongrass; [10]): 5
- Corn plant response rating (0 to 100 scale) (corn): 0
- Corn plant response rating (corn): 50
